Data from patent US8541460B2, “PDK-1/Akt signaling inhibitors” (The Ohio State University, priority 2003, dated 2013).

Columns and labels:
[1] = tested on: phospho-473Ser Akt; assay: Western blot of Akt and phospho-Akt in PC-3 cells; type: cell-based, human; conditions: 1 μM
Description: Immunoblotting. The general procedure for the Western blot analysis of Akt and phospho-Akt is described as follows. Cells were washed in PBS, resuspended in SDS sample buffer sonicated by an ultrasonic sonicator for 5 sec, and boiled for 5 min. After brief centrifugation, equivalent protein concentrations from the soluble fractions were resolved in 10% SDS-polyacrylamide gels on a Minigel apparatus, and transferred to a nitrocellulose membrane using a semi-dry transfer cell. The transblotted membrane was washed three times with TBS containing 0.05% Tween 20 (TBST). After blocking with TBST containing 5% nonfat milk for 60 min., the membrane was incubated with the primary antibody at 1:1,000 dilution in TBST-5% low fat milk at 4° C. for 12 h, and was then washed three times with TBST. The membrane was probed with goat anti-rabbit IgG-HRP conjugates (1:1,000) for 1 h at room temperature, and was washed with TBST three times. The immunoblots were visualized by enhanced chemiluminescence.

[2] = tested on: HT29; assay: NCI DTP cell line screen (SRB), Colon Cancer; type: cell-based
[3] = tested on: IGROV1; assay: NCI DTP cell line screen (SRB), Ovarian Cancer; type: cell-based
Description: (§1) Screening of compounds 70 and 71 against several cancer cell lines The human tumor cell lines of the cancer screening panel are grown in RPMI 1640 medium containing 5% fetal bovine serum and 2 mM L-glutamine. For a typical screening experiment, cells are inoculated into 96 well microtiter plates in 100 μL at plating densities ranging from 5,000 to 40,000 cells/well depending on the doubling time of individual cell lines. After cell inoculation, the microtiter plates are incubated at 37° C., 5% CO2, 95% air and 100% relative humidity for 24 h prior to addition of experimental drugs.
(§2) After 24 h, two plates of each cell line are fixed in situ with TCA, to represent a measurement of the cell population for each cell line at the time of drug addition (Tz). Experimental drugs are solubilized in dimethyl sulfoxide at 400-fold the desired final maximum test concentration and stored frozen prior to use. At the time of drug addition, an aliquot of frozen concentrate is thawed and diluted to twice the desired final maximum test concentration with complete medium containing 50 μg/ml gentamicin. Additional four, 10-fold or ½ log serial dilutions are made to provide a total of five drug concentrations plus control. Aliquots of 100 μl of these different drug dilutions are added to the appropriate microtiter wells already containing 100 μl of medium, resulting in the required final drug concentrations.
(§3) Following drug addition, the plates are incubated for an additional 48 h at 37° C., 5% CO2, 95% air, and 100% relative humidity. For adherent cells, the assay is terminated by the addition of cold TCA. Cells are fixed in situ by the gentle addition of 50 μl of cold 50% (w/v) TCA (final concentration, 10% TCA) and incubated for 60 minutes at 4° C. The supernatant is discarded, and the plates are washed five times with tap water and air dried. Sulforhodamine B (SRB) solution (100 μl) at 0.4% (w/v) in 1% acetic acid is added to each well, and plates are incubated for 10 minutes at room temperature. After staining, unbound dye is removed by washing five times with 1% acetic acid and the plates are air dried. Bound stain is subsequently solubilized with 10 mM trizma base, and the absorbance is read on an automated plate reader at a wavelength of 515 nm. For suspension cells, the methodology is the same except that the assay is terminated by fixing settled cells at the bottom of the wells by gently adding 50 μl of 80% TCA (final concentration, 16% TCA). Using the seven absorbance measurements [time zero, (Tz), control growth, (C), and test growth in the presence of drug at the five concentration levels (Ti)], the percentage growth is calculated at each of the drug concentrations levels. Percentage growth inhibition is calculated as: [(Ti−Tz)/(C−Tz)]×100 for concentrations for which Ti>/=Tz [(Ti−Tz)/Tz]×100 for concentrations for which Ti<Tz
(§4) Three dose response parameters are calculated for each experimental agent. […] The drug concentration resulting in total growth inhibition (TGI) is calculated from Ti=Tz. […] Values are calculated for each of these three parameters if the level of activity is reached; however, if the effect is not reached or is exceeded, the value for that parameter is expressed as greater or less than the maximum or minimum concentration tested.
(§5) The methods described were used to test compounds 70 and 71 on a panel of sixty cell lines under a screening service provided by the Developmental Therapeutics Program at the National Institutes of Health. Shown in FIG. 1C are 1, RPMI-8226 leukemia cells; 2; NCI-H322M non-small cell lung cancer cells; 3, HT29 colon cancer cells; 4, U251 CNS cancer cells; 5, SK-MEL-28 melanoma cancer cells; 6, SK-OV-3 ovarian cancer cells; 7, RXF 393 renal cancer cells; 8, PC-3 prostate cancer cells; 9, MDA-MB-231 breast cancer cells.

[4] = tested on: OVCAR-3; assay: NCI DTP cell line screen (SRB), Ovarian Cancer; type: cell-based
Description: as §1, §2, §3, §4, §5

[5] = tested on: OVCAR-4; assay: NCI DTP cell line screen (SRB), Ovarian Cancer; type: cell-based
Description: as §1, §2, §3, §4, §5

[6] = tested on: OVCAR-5; assay: NCI DTP cell line screen (SRB), Ovarian Cancer; type: cell-based
Description: as §1, §2, §3, §4, §5

[7] = tested on: OVCAR-8; assay: NCI DTP cell line screen (SRB), Ovarian Cancer; type: cell-based
Description: as §1, §2, §3, §4, §5

[8] = read-out: LC50 (the source's name)
[9] = OVCAR 8, Log10 Concentration −4.0
[10] = OVCAR 8, Log10 Concentration −5.0
[11] = OVCAR 8, Log10 Concentration −6.0
[12] = OVCAR 8, Log10 Concentration −7.0
[13] = OVCAR 8, Log10 Concentration −8.0

With NCC(=O)Nc1ccc(-n2nc(C(F)(F)F)cc2-c2ccc3c(ccc4ccccc43)c2)cc1 [Compound 70, 2-Amino-N-{4-[5-(2-phenanthrenyl)-3-(trifluoromethyl)-1H-pyrazol-1-yl]-phenyl}-acetamide] the phospho-Akt level [1] was “substantial decrease in the phospho-Akt level”, the TGI [2] was 2.64E−06 and the “Percent Growth” value ([2]; Log10 Concentration −4.0) was −26%. The “Percent Growth” value ([2]; Log10 Concentration −5.0) was −65%, the “Percent Growth” value ([2]; Log10 Concentration −6.0) was 47% and the “Percent Growth” value ([2]; Log10 Concentration −7.0) was 88%. The “Percent Growth” value ([2]; Log10 Concentration −8.0) was 92%, the TGI [3] was 3.97E−06 and the “Percent Growth” value ([3]; Log10 Concentration −4.0) was −35%. The “Percent Growth” value ([3]; Log10 Concentration −5.0) was −49%, the “Percent Growth” value ([3]; Log10 Concentration −6.0) was 74% and the “Percent Growth” value ([3]; Log10 Concentration −7.0) was 107%. The “Percent Growth” value ([3]; Log10 Concentration −8.0) was 97%, the TGI [4] was 3.32E−06 and the “Percent Growth” value ([4]; Log10 Concentration −4.0) was −35%. For the same molecule, the “Percent Growth” value ([4]; Log10 Concentration −5.0) was −70%, the “Percent Growth” value ([4]; Log10 Concentration −6.0) was 76% and the “Percent Growth” value ([4]; Log10 Concentration −7.0) was 83%. The “Percent Growth” value ([4]; Log10 Concentration −8.0) was 89%, the TGI [5] was 3.41E−06 and the “Percent Growth” value ([5]; Log10 Concentration −4.0) was −68%. For the same molecule, the “Percent Growth” value ([5]; Log10 Concentration −5.0) was −82%, the “Percent Growth” value ([5]; Log10 Concentration −6.0) was 94% and the “Percent Growth” value ([5]; Log10 Concentration −7.0) was 92%. The “Percent Growth” value ([5]; Log10 Concentration −8.0) was 99%, the TGI [6] was 3.32E−06 and the “Percent Growth” value ([6]; Log10 Concentration −4.0) was −71%. The “Percent Growth” value ([6]; Log10 Concentration −5.0) was −83%, the “Percent Growth” value ([6]; Log10 Concentration −6.0) was 90% and the “Percent Growth” value ([6]; Log10 Concentration −7.0) was 103%. For the same molecule, the “Percent Growth” value ([6]; Log10 Concentration −8.0) was 97%, the TGI ([7]; OVCAR-8) was 4.05E−06 and the “Percent Growth” value ([7]; OVCAR-8, Log10 Concentration −4.0) was −24%. The “Percent Growth” value ([7]; OVCAR-8, Log10 Concentration −5.0) was −33%, the “Percent Growth” value ([7]; OVCAR-8, Log10 Concentration −6.0) was 51% and the “Percent Growth” value ([7]; OVCAR-8, Log10 Concentration −7.0) was 102%. For the same molecule, the “Percent Growth” value ([7]; OVCAR-8, Log10 Concentration −8.0) was 97%.
With N=C(N)Nc1ccc(-n2nc(C(F)(F)F)cc2-c2ccc3c(ccc4ccccc43)c2)cc1 [Compound 71, 4-[5-(2-Phenanthrenyl)-3-(trifluoromethyl)-1H-pyrazol-1-yl]-phenyl-guanidine] the phospho-Akt level [1] was “substantial decrease in the phospho-Akt level”, the GI50 [2] was 1.5 µM and the TGI [2] was 2.83E−06. The “Mean Optical Densities” value ([2]; Log10 Concentration −4.0) was 0.003, the “Percent Growth” value ([2]; Log10 Concentration −4.0) was −99% and the “Mean Optical Densities” value ([2]; Log10 Concentration −5.0) was −0.054. For the same molecule, the “Percent Growth” value ([2]; Log10 Concentration −5.0) was −100%, the “Mean Optical Densities” value ([2]; Log10 Concentration −6.0) was 1.136 and the “Percent Growth” value ([2]; Log10 Concentration −6.0) was 82%. For the same molecule, the “Mean Optical Densities” value ([2]; Log10 Concentration −7.0) was 1.238, the “Percent Growth” value ([2]; Log10 Concentration −7.0) was 91% and the “Mean Optical Densities” value ([2]; Log10 Concentration −8.0) was 1.276. The “Percent Growth” value ([2]; Log10 Concentration −8.0) was 95%, the CC50 [2, 8] was 5.32 µM and the GI50 [3] was 1.07 µM. For the same molecule, the TGI [3] was 2.26E−06, the “Mean Optical Densities” value ([3]; Log10 Concentration −4.0) was 0.216 and the “Percent Growth” value ([3]; Log10 Concentration −4.0) was −53%. The “Mean Optical Densities” value ([3]; Log10 Concentration −5.0) was −0.039, the “Percent Growth” value ([3]; Log10 Concentration −5.0) was −100% and the “Mean Optical Densities” value ([3]; Log10 Concentration −6.0) was 0.806. For the same molecule, the “Percent Growth” value ([3]; Log10 Concentration −6.0) was 55%, the “Mean Optical Densities” value ([3]; Log10 Concentration −7.0) was 0.983 and the “Percent Growth” value ([3]; Log10 Concentration −7.0) was 83%. For the same molecule, the “Mean Optical Densities” value ([3]; Log10 Concentration −8.0) was 0.997, the “Percent Growth” value ([3]; Log10 Concentration −8.0) was 85% and the CC50 [3, 8] was 4.75 µM. The GI50 [4] was 1.4 µM, the TGI [4] was 2.70E−06 and the “Mean Optical Densities” value ([4]; Log10 Concentration −4.0) was 0.131. The “Percent Growth” value ([4]; Log10 Concentration −4.0) was −72%, the “Mean Optical Densities” value ([4]; Log10 Concentration −5.0) was −0.043 and the “Percent Growth” value ([4]; Log10 Concentration −5.0) was −100%. For the same molecule, the “Mean Optical Densities” value ([4]; Log10 Concentration −6.0) was 0.770, the “Percent Growth” value ([4]; Log10 Concentration −6.0) was 76% and the “Mean Optical Densities” value ([4]; Log10 Concentration −7.0) was 0.792. The “Percent Growth” value ([4]; Log10 Concentration −7.0) was 81%, the “Mean Optical Densities” value ([4]; Log10 Concentration −8.0) was 0.833 and the “Percent Growth” value ([4]; Log10 Concentration −8.0) was 91%. It also gave a CC50 [4, 8] of 5.2 µM, a GI50 [5] of 1.31 µM and a TGI [5] of 2.58E−06. For the same molecule, the “Mean Optical Densities” value ([5]; Log10 Concentration −4.0) was 0.179, the “Percent Growth” value ([5]; Log10 Concentration −4.0) was −66% and the “Mean Optical Densities” value ([5]; Log10 Concentration −5.0) was −0.001. For the same molecule, the “Percent Growth” value ([5]; Log10 Concentration −5.0) was −100%, the “Mean Optical Densities” value ([5]; Log10 Concentration −6.0) was 0.945 and the “Percent Growth” value ([5]; Log10 Concentration −6.0) was 70%. The “Mean Optical Densities” value ([5]; Log10 Concentration −7.0) was 0.999, the “Percent Growth” value ([5]; Log10 Concentration −7.0) was 79% and the “Mean Optical Densities” value ([5]; Log10 Concentration −8.0) was 1.011. The “Percent Growth” value ([5]; Log10 Concentration −8.0) was 81%, the CC50 [5, 8] was 5.08 µM and the GI50 [6] was 1.73 µM. For the same molecule, the TGI [6] was 3.11E−06, the “Mean Optical Densities” value ([6]; Log10 Concentration −4.0) was 0.474 and the “Percent Growth” value ([6]; Log10 Concentration −4.0) was −8%. The “Mean Optical Densities” value ([6]; Log10 Concentration −5.0) was −0.033, the “Percent Growth” value ([6]; Log10 Concentration −5.0) was −100% and the “Mean Optical Densities” value ([6]; Log10 Concentration −6.0) was 1.559. For the same molecule, the “Percent Growth” value ([6]; Log10 Concentration −6.0) was 97%, the “Mean Optical Densities” value ([6]; Log10 Concentration −7.0) was 1.437 and the “Percent Growth” value ([6]; Log10 Concentration −7.0) was 86%. For the same molecule, the “Mean Optical Densities” value ([6]; Log10 Concentration −8.0) was 1.538, the “Percent Growth” value ([6]; Log10 Concentration −8.0) was 95% and the GI50 ([7]; OVCAR 8) was 1.69 µM. The TGI ([7]; OVCAR 8) was 3.05E−06, the “Mean Optical Densities” value [7, 9] was 0.126 and the “Percent Growth” value [7, 9] was −69%. The “Mean Optical Densities” value [7, 10] was −0.001, the “Percent Growth” value [7, 10] was −100% and the “Mean Optical Densities” value [7, 11] was 0.934. The “Percent Growth” value [7, 11] was 94%, the “Mean Optical Densities” value [7, 12] was 0.946 and the “Percent Growth” value [7, 12] was 96%. For the same molecule, the “Mean Optical Densities” value [7, 13] was 0.923, the “Percent Growth” value [7, 13] was 92% and the CC50 ([7]; OVCAR 8, read-out: LC50 (the source's name)) was 5.52 µM.
